SMILES strings stand for the structures. “And” between values parts separate entries of the source, which are not always exact repeats. Equal values may be shown once.

For one experiment, the target named is CDK6/cyclin D1 (Homo sapiens, UniProt Q00534). As to the kind of experiment: biochemical. Conditions: read-out: % enzyme activity, 1 μM; Run 1, Run 2.
The next experiment concerns the target WNK1 (Homo sapiens, UniProt Q9H4A3). To be noted: 1 μM; Run 1, Run 2.
A further experiment addresses T1, PHKg2 (Homo sapiens, UniProt P15735).
T1 sequence (P15735 1-406): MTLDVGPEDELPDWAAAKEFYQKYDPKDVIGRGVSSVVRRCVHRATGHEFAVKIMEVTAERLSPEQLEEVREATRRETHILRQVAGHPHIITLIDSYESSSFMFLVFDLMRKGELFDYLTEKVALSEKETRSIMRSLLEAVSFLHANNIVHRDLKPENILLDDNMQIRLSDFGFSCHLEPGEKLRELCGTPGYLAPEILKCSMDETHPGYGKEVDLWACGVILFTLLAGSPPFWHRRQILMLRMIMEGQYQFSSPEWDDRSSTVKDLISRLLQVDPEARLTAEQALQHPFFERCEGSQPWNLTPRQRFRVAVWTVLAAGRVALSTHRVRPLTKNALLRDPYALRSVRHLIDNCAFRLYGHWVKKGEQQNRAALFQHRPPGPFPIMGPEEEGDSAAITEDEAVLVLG
Conditions: 1 μM; Run 1, Run 2.

Another experiment has as its target ERN2/IRE2 (Homo sapiens, UniProt Q76MJ5). As to the kind of experiment: biochemical. Conditions: read-out: % enzyme activity, 1 μM; Run 1, Run 2.
A further experiment addresses CAMKK1 (Homo sapiens, UniProt Q8N5S9). As to the kind of experiment: biochemical. To be noted: read-out: % enzyme activity, 1 μM; Run 1, Run 2.
A further experiment deals with T2, Aurora A (Homo sapiens, UniProt O14965).
T2 sequence (O14965 1-403): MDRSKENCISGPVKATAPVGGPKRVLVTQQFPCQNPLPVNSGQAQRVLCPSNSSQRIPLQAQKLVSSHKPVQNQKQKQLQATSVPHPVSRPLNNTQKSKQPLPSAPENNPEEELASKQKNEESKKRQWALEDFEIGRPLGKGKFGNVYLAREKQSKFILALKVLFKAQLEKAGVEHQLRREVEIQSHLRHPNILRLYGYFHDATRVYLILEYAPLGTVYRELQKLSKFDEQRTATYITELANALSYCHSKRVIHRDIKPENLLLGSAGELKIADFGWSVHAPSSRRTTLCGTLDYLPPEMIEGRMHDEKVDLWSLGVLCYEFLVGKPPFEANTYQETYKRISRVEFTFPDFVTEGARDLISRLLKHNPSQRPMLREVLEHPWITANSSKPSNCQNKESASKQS
Conditions: 1 μM; Run 1, Run 2.

In another experiment the target is CDK3/cyclin E2 (Homo sapiens, UniProt Q00526). Conditions: 1 μM; Run 1, Run 2.
Chain of CDK3/cyclin E2 (Q00526 whole entry): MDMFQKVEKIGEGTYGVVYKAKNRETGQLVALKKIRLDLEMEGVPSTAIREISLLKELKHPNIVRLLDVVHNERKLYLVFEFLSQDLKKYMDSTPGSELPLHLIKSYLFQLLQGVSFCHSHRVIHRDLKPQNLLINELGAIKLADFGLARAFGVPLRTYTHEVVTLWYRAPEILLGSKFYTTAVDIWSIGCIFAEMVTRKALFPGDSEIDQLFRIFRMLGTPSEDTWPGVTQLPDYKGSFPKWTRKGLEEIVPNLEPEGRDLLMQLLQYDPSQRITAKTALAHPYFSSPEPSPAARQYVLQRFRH
Chain of CDK3/cyclin E2 (O96020 whole entry partner): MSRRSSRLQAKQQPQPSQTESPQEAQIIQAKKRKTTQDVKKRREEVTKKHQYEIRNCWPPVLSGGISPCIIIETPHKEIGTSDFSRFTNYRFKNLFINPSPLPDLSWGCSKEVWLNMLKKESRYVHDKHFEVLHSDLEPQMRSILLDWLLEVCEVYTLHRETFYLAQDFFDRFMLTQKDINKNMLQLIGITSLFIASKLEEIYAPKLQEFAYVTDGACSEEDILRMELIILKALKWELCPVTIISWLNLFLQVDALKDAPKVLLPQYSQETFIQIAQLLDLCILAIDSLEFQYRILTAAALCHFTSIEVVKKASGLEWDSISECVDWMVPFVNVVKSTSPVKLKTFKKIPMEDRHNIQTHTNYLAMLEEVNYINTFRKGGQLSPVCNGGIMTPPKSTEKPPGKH
The target of another experiment is PIM1 (Homo sapiens, UniProt P11309). To be noted: 1 μM; Run 1, Run 2.
Chain of PIM1 (P11309 whole entry): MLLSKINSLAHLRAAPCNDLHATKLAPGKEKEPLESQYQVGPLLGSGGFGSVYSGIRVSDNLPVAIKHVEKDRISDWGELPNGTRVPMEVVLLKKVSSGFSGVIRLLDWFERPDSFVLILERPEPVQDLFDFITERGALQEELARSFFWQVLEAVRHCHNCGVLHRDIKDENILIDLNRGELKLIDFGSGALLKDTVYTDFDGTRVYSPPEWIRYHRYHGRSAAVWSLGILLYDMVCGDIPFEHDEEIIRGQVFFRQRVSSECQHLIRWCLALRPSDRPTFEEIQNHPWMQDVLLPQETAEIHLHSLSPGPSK
The next experiment deals with NEK6 (Homo sapiens, UniProt Q9HC98). To be noted: 1 μM; Run 1, Run 2.
Chain of NEK6 (Q9HC98 whole entry): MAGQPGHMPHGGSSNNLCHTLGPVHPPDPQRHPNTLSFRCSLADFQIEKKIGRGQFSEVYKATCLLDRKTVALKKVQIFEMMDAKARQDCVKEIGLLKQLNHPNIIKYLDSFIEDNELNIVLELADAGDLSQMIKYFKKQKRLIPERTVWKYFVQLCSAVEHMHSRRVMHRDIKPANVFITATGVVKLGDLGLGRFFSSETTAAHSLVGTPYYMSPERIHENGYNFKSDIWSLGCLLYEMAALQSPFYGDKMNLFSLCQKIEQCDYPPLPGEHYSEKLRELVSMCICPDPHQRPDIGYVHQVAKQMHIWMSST
The target of another experiment is T3, P38g (Homo sapiens, UniProt P53778).
T3 sequence (P53778 1-367): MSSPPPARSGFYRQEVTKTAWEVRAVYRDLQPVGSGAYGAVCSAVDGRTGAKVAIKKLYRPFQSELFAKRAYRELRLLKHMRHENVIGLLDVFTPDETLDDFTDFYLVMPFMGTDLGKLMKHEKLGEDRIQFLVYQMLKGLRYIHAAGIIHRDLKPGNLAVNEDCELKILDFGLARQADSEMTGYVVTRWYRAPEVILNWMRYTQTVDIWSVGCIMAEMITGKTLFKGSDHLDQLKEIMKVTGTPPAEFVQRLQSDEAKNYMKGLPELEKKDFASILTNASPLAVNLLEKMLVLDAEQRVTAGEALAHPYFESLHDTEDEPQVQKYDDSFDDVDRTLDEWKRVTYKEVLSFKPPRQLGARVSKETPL
Description: biochemical. Conditions: read-out: % enzyme activity, 1 μM; Run 1, Run 2.

For another experiment, the target named is HPK1/MAP4K1 (Homo sapiens, UniProt Q92918). Description: biochemical. Conditions: read-out: % enzyme activity, 1 μM; Run 1, Run 2.
Chain of HPK1/MAP4K1 (Q92918 whole entry): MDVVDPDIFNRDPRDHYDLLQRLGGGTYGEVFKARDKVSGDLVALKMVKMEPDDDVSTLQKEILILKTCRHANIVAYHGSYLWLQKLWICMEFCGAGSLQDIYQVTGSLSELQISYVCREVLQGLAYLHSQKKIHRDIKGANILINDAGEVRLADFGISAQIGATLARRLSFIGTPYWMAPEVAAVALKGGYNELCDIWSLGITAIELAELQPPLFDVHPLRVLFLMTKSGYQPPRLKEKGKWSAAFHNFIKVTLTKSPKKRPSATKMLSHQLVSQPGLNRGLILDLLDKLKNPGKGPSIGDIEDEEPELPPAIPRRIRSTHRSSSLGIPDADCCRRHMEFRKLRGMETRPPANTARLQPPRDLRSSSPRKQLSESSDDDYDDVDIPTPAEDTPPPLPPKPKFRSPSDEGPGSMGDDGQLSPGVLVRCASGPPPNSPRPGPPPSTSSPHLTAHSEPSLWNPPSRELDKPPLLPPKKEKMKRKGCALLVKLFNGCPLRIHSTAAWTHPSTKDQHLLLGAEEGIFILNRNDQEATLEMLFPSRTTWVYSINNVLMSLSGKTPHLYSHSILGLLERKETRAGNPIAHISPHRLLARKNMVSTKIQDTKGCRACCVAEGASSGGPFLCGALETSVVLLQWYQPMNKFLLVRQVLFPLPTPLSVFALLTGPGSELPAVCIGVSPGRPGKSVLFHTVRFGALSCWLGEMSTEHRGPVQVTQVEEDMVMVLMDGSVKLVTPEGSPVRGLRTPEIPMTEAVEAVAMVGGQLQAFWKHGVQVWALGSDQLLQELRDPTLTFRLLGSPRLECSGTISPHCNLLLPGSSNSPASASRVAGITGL
For another experiment, the target named is GSK3b (Homo sapiens, UniProt P49841). Description: biochemical. To be noted: read-out: % enzyme activity, 1 μM; Run 1, Run 2.
Chain of GSK3b (P49841 whole entry): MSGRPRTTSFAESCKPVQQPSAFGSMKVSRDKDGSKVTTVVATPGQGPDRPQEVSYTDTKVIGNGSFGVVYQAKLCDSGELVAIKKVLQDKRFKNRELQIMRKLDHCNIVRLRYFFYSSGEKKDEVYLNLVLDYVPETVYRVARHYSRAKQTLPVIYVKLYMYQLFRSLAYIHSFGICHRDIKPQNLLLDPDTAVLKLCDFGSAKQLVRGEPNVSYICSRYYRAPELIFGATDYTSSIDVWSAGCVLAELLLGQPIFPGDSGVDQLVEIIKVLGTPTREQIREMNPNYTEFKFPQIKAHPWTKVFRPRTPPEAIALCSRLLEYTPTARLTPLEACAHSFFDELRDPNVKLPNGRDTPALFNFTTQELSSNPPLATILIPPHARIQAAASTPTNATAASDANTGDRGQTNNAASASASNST
For another experiment, the target named is T4, MARK4 (Homo sapiens, UniProt Q96L34).
T4 sequence (Q96L34 1-752): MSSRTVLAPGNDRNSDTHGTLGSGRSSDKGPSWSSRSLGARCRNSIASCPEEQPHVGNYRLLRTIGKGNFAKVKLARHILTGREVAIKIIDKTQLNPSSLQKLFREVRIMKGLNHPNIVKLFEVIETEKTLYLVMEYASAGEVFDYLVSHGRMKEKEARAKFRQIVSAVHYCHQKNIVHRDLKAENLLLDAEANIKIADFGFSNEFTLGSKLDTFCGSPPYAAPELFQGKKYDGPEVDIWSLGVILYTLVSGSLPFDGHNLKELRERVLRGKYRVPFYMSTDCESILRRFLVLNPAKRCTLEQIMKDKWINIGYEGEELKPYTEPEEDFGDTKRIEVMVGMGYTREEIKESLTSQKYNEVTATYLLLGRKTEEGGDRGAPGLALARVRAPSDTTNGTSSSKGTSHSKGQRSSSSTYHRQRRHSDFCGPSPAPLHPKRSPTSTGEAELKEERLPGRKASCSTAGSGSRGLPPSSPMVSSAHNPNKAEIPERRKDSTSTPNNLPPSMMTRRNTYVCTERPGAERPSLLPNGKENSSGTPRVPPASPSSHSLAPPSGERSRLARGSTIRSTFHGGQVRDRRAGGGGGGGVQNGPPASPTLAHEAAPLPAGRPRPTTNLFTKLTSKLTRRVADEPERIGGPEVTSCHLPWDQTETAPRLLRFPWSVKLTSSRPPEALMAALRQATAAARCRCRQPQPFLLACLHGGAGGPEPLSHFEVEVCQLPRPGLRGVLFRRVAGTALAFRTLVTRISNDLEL
As to the kind of experiment: biochemical. To be noted: read-out: % enzyme activity, 1 μM; Run 1, Run 2.

Chain of ERN2/IRE2 (Q76MJ5 35-926): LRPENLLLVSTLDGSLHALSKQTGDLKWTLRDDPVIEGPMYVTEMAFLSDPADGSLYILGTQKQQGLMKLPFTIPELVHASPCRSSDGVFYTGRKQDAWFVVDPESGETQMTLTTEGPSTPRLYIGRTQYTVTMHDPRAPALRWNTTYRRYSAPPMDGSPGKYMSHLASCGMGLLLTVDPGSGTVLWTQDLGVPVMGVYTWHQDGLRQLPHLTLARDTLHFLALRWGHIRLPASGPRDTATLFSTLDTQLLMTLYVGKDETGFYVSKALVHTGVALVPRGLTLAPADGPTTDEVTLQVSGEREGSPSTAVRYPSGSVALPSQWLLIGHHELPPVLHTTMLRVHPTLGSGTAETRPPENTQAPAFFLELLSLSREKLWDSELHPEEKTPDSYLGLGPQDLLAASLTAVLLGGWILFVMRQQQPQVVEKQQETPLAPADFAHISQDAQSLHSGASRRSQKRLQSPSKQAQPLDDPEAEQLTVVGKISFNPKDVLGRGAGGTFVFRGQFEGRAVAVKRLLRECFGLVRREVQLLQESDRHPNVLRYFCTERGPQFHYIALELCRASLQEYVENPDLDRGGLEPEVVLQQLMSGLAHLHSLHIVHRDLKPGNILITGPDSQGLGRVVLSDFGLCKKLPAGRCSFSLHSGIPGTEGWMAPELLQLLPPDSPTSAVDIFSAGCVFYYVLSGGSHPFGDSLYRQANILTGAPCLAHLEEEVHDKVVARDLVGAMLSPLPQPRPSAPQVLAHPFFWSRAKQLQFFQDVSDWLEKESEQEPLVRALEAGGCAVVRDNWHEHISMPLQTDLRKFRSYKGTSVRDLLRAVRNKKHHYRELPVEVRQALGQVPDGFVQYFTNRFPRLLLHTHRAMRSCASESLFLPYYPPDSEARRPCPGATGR
Chain of CDK6/cyclin D1 (Q00534 whole entry): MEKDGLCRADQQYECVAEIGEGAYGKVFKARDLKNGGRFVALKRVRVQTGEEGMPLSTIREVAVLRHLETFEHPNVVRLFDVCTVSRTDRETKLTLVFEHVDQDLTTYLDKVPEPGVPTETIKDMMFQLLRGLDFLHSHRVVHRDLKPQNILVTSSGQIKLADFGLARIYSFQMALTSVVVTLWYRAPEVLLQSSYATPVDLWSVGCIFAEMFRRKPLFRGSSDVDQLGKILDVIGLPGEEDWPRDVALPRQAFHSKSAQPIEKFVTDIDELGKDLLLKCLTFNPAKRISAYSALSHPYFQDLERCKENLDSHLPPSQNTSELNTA
Chain of CDK6/cyclin D1 (P24385 whole entry partner): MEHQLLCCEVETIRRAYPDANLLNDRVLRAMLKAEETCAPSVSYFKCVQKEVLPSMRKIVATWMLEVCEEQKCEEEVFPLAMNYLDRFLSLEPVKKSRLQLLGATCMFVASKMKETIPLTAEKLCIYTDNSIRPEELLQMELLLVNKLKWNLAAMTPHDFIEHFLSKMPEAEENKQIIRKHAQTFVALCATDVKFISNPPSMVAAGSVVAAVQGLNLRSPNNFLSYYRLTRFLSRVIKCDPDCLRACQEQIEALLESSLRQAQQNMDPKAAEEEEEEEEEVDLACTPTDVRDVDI
Chain of CAMKK1 (Q8N5S9 whole entry): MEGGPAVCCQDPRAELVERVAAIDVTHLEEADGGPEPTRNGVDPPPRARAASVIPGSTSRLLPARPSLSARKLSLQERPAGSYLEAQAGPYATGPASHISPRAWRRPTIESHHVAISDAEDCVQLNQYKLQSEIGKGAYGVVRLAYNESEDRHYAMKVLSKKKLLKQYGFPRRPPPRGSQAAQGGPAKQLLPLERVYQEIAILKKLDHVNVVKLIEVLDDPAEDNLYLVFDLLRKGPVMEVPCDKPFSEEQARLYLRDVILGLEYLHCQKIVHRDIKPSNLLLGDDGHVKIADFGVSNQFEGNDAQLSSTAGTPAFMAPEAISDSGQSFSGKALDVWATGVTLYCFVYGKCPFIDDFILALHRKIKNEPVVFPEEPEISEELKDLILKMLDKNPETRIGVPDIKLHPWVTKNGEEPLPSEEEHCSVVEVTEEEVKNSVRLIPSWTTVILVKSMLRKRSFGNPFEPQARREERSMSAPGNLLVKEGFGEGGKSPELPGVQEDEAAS

Turning to `COc1cc(-c2cncc(-c3ccc(N4CCN(C)CC4)cc3)c2C)cc(F)c1C(N)=O` [Compound 26a, 2-Fluoro-6-methoxy-4-(4-methyl-5-(4-(4-methylpiperazin-1-yl)phenyl)pyridin-3-yl)benzamide], the remaining activity at 1 µM on CDK6/cyclin D1 came to 100%; on ERN2/IRE2, 97.5%; at CAMKK1, 94.7%; at P38g it was 110%; at HPK1/MAP4K1, 58.7%; on GSK3b it was 88.5%. Moreover, at MARK4, the remaining activity at 1 µM was 83.7%. Besides, the “% enzyme activity” value on WNK1 turned out to be 107.33%; on PHKg2 it was 93.32%; on Aurora A, 97.24%; on CDK3/cyclin E2, 88.05%; on PIM1, 97.92%; at NEK6, 98.81%. In addition, in the experiment on ALK6/BMPR1B, the % enzyme activity at 1 μM was 18.2% and 17%.

For the molecule `COc1cc(-c2cncc(-c3ccc(N4C[C@@H](C)N(C)[C@@H](C)C4)cc3)c2C)cc(F)c1C(N)=O` [Compound 26c, 2-Fluoro-6-methoxy-4-(4-methyl-5-(4-((3R,5S)-3,4,5-trimethylpiperazin-1-yl)phenyl)pyridin-3-yl)benzamide], the remaining activity at 1 µM on CDK6/cyclin D1 worked out at 95.9%; at ERN2/IRE2, 98.9%; on CAMKK1 it was 94%; on P38g, 108%; at HPK1/MAP4K1 it was 74.7%; at GSK3b it was 88.8%. Besides, the remaining activity at 1 µM on MARK4 came out at 96.8%. Also, the “% enzyme activity” value was 102.29% on WNK1; 96.43% on PHKg2; 101.37% on Aurora A; 83.94% at CDK3/cyclin E2; 92.25% at PIM1; 103.36% on NEK6. Also, the % enzyme activity at 1 μM in the experiment with ALK6/BMPR1B is 30.2% and 30.1%.
